Measurements taken from patent US11135145B2 (priority 2015, dated 2021).
“And” between values parts separate entries of the source, which are not always exact repeats. Equal entries are not always repeated. Where two headings read alike, the source gives them in different places.

Legend:
[1] = tested on: NQO-1 antioxidant response element (NQO-1 - ARE); assay: NQO-1-ARE luciferase reporter HepG2 cell line; format: cell-based, human; conditions: for NQO-1—ARE transcription in HepG2 cells (in words): 5 μM; for NQO-1 - ARE transcription, normalised to positive control (blank = 0%, 10 μM trans-resveratrol = 100%): 5 μM single compound; for NQO-1 - ARE transcription, normalised to positive control (blank = 0%, 10 μM trans-resveratrol = 100%) / NQO-1 - ARE transcription, normalised to positive control: HepG2, 6 hours, n = 3, ± SD
Procedure: A pGL4.22[luc2CP/puro] reporter vector containing NQO-1-ARE was transfected into the HepG2 cell line according to the method set forth in Xue et al (Biochem J 443: 213-222, (2012)). Transfected HepG2 cells were selected with puromycin (1 μg/ml). After culture for 3 weeks, puromycin-resistant cells were screened for luciferase activity after treatment with 4 μM sulforaphane for 6 hours. After validation of positive clones by measuring luciferase activity, the NQO-1-ARE stable cell line was expanded in selection media.
(§1) Stable transfectant cell line was incubated with and without test compounds for 6 hours in MEM with 10% fetal calf serum and 2 mM glutamine under an atmosphere of 5% CO2 in air, 100% humidity and 37° C. For the reporter assay, 100 μl Cell Culture Lysis Reagent (CCLR, Promega) was added to cell and shaken gently for 30 minutes. The mixture of cell lysate was centrifuged (12,000 g, 5 minutes, 4° C.) and an aliquot (20 μl) of supernatant used in the reporter assay. The luciferase activity was determined using a Luciferase Assay System (Promega). The luciferase response is given in Relative Light Units (RLU).
(§2) These were produced by transfection of a pGL4.22[luc2CP/puro] reporter vector containing NQO1-ARE or GLO1-ARE into the HepG2 cell line. Transfected HepG2 cells were selected with puromycin (1 μg/ml). After culture for 3 weeks, puromycin-resistant cells were screened for luciferase activity after treatment with 4 μM SFN for 6 h. After validation of positive clones by measuring luciferase activity, the stable cell line was expanded in selection media and thereafter used in studies for screening of bioactive compounds and synergism. Stable transfectant cell lines were incubated with and without bioactive compounds and combination of tRES and HESP (0.625-5.0 μM) for 6 h in MEM medium with 10% fetal calf serum and 2 mM glutamine under an atmosphere of 5% CO2 in air, 100% humidity and 37° C. This incubation period was optimum to judge initial rate of increase in transcriptional response in cells treated with compounds without increase in untreated controls. For the reporter assay, 100 μl Cell Culture Lysis Reagent (CCLR, Promega, Southampton, UK) was added to cell and shaken gently for 30 min. The mixture of cell lysate was centrifuged (12,000 g, 5 min, 4° C.) and an aliquot (20 μl) of supernatant used in the reporter assay. The luciferase activity was determined using a Luciferase Assay System (Promega). The luciferase response is given in Relative Light Units (RLU). Data are corrected for blank response and normalised to the highest effect (100%) achieved with 10 μM tRES. Data of normalised responses (blank=0%, 10 μM tRES=100%) for varied bioactive concentrations are fitted by non-linear regression to a dose-response curve, E=Emax×[Bioactive]^n/(EC50^n+[Bioactive]^n), solving for EC50 and n (logistic regression coefficient—also called the Hill coefficient). Nrf2-dependent transcriptional response was verified by siRNA silencing of Nrf2, as described in Xue et al., Biochem J 443, 213-222 (2012).

[2] = tested on: glyoxalase 1 antioxidant response element (GLO1-ARE); assay: Stable transfectant GLO1-ARE luciferase reporter HepG2 cell line; format: cell-based, human; conditions: for GLO1-ARE transcription, normalised to positive control (blank = 0%, 10 μM trans-resveratrol = 100%): 5 μM single compound; for GLO1-ARE transcription, normalised to positive control (blank = 0%, 10 μM trans-resveratrol = 100%) / GLO1-ARE transcription, normalised to positive control: 6 hours, n = 3, ± SD; for Emax / EC50: Homo sapiens; for Emax: 10 μM tRES = 100%
Procedure: A pGL4.22[luc2CP/puro] reporter vector containing GLO1-ARE was transfected into the HepG2 cell line according to the method set forth in Xue et al. (Biochem. J., 443, 213-222 (2012)). Transfected HepG2 cells were selected with puromycin (1 μg/ml). After culture for 3 weeks, puromycin-resistant cells were screened for luciferase activity after treatment with 4 μM sulforaphane for 6 hours. After validation of positive clones by measuring luciferase activity, the GLO1-ARE stable cell line, R1F3, was expanded in selection media.
as §1, with “line R1F3” for “line”
as §2

[3] = dietary supplement of 150 mg HESP (Takumi et al.); cited from earlier work
[4] = HATFF study: total urinary metabolites of tRES and HESP (LC-MS/MS); format: in vivo, human; conditions: urine
[5] = tested on: HO-1 mRNA; assay: HO-1 (HMOX1) mRNA by digital mRNA profiling (NanoString nCounter); format: cell-based; conditions: human dermal foreskin BJ fibroblasts; 5 μM of each compound; 12 hours; n = 3; ± SD
Procedure: (§3) Human dermal foreskin BJ fibroblasts at cumulative population doubling of 22 were purchased from the European Collection of Animal Cell Cultures (Porton Down, UK). They were cultured in Eagle's Minimum Essential Medium (MEM) with 10% fetal calf serum and 2 mM glutamine under an atmosphere of 5% CO2 in air, 100% humidity and 37° C.

[6] = tested on: GSH; assay: Cellular GSH content; format: cell-based, human; conditions: HAECs, BJ fibroblasts and HepG2 cells; 5 μM single compound
[7] = tested on: ICAM1 mRNA; assay: ICAM1 mRNA, focused quantitative mRNA profiling; format: cell-based, human; conditions: HAECs
[8] = tested on: matrix metalloproteinase-3 protein (MMP); assay: Cellular MMP-3 protein marker; format: cell-based, human; conditions: BJ fibroblasts; 5 μM
[9] = tested on: human BJ fibroblasts; assay: Cytotoxicity in human BJ fibroblasts in primary culture; format: cell-based; conditions: for toxicity (cytotoxicity): individually or with 5 μM combination with primary bioactive compound, concentrations ≤20 μM
Procedure: Primary human aortal endothelial cells (HAEC) were purchased from Lonza (Slough, U.K). HAEC cells were grown in proprietary large vessel endothelial cell basal media supplemented with large vessel endothelial cell growth supplement (containing hydrocortisone, human epidermal growth factor, human fibroblast growth factor with heparin and in 2% (/v/) FBS), 25 μg/ml gentamicin and 50 ng/ml amphotericin B. Human dermal foreskin BJ fibroblasts at cumulative population doubling of 22 were purchased from the European Collection of Animal Cell Cultures (Porton Down, UK). They were cultured in MEM medium with 10% fetal calf serum and 2 mM glutamine under an atmosphere of 5% CO2 in air, 100% humidity and 37° C.

[10] = tested on: NQO-1 mRNA; assay: NQO-1 mRNA by digital mRNA profiling (NanoString nCounter); format: cell-based; conditions: human dermal foreskin BJ fibroblasts; 5 μM of each compound; 12 hours; n = 3; ± SD
Procedure: as §3

[11] = tested on: oxidised glutathione (GSSG); assay: Cellular GSSG content; format: cell-based, human; conditions: HAECs, BJ fibroblasts and HepG2 cells; 5 μM single compound
[12] = reviewed in Vang et al. and Parhiz et al.; cited from earlier work
[13] = patients with type 2 diabetes; 1.7 g metformin per day; cited from earlier work
[14] = tested on: human hair follicle; conditions: WO 2014/095289 Example 3; cited from earlier work
[15] = tested on: HO-1 gene expression; conditions: WO 2014/095289 Example 4; cited from earlier work
[16] = tested on: NQO-1 gene expression; conditions: WO 2014/095289 Example 4; cited from earlier work
[17] = compound alone, HepG2 reporter, 6 h, read-out: EC50 for GLO1-ARE transcriptional response

In the case of `O=C1CC(c2ccc(O)c(O)c2)Oc2cc(O)cc(O)c21` (stereo not drawn) [Eriodictyol, 2-(3,4-Dihydroxyphenyl)-5,7-dihydroxy-4-chromanone], the “NQO-1—ARE transcription in HepG2 cells (in words)” value [1] is reported as “up-regulate” and the “NQO-1 - ARE transcription, normalised to positive control (blank = 0%, 10 μM trans-resveratrol = 100%)” value [1] is reported as 95.3 ± 14.7%.

In the case of `O=C1C[C@@H](c2ccc(O)cc2)Oc2cc(O)cc(O)c21` [Naringenin, naringenin, reference compound], the “NQO-1—ARE transcription in HepG2 cells (in words)” value [1] is reported as “does not up-regulate” and the “NQO-1 - ARE transcription, normalised to positive control (blank = 0%, 10 μM trans-resveratrol = 100%)” value [1] is reported as −2.75 ± 5.24%.

For `Oc1cc(O)cc(/C=C/c2ccc(O)c(O)c2)c1` [Piceatannol, piceatannol], the “NQO-1 - ARE transcription, normalised to positive control (blank = 0%, 10 μM trans-resveratrol = 100%)” value [1] was 66.6 ± 2.4% and the “GLO1-ARE transcription, normalised to positive control (blank = 0%, 10 μM trans-resveratrol = 100%)” value ([2]; HepG2) was 61.3 ± 31.0%.

With `COc1cc(/C=C/c2ccc(O)cc2)cc(OC)c1` [Pterostilbene, pterostilbene] the “NQO-1 - ARE transcription, normalised to positive control (blank = 0%, 10 μM trans-resveratrol = 100%)” value [1] was 41.8 ± 2.7% and the “GLO1-ARE transcription, normalised to positive control (blank = 0%, 10 μM trans-resveratrol = 100%)” value ([2]; HepG2) was 37.5 ± 18.3%.

In the case of `COc1ccc(C2CC(=O)c3c(O)cc(O)cc3O2)cc1O` (stereo not drawn) [hesperetin, 2,3-Dihydro-5,7-dihydroxy-2-(3-hydroxy-4-methoxyphenyl)-4H-1-benzopyran-4-one], the “peak plasma concentration of HESP” value [3] is given as 6.7 µM, the “eriodictyol (demethylated HESP) in study samples” value [4] is given as “no eriodctyol (demethylated HESP), was detected” and the “NQO-1 - ARE transcription, normalised to positive control (blank = 0%, 10 μM trans-resveratrol = 100%)” value [1] is given as 7.9 ± 0.7%. The “HO-1 mRNA (relative mRNA copy numbers as a % of vehicle control)” value [5] was 95.4 ± 3.7 % of vehicle control, the “cellular level of GSH” value [6] was “did not change” and the “GLO1-ARE transcription, normalised to positive control (blank = 0%, 10 μM trans-resveratrol = 100%)” value ([2]; HepG2) was 13.0 ± 1.6%. The “logistic regression coefficient n, GLO1-ARE response” value ([2]; HESP alone) was 2.01±0.02, the Emax ([2]; HepG2, compound alone) was 24.4 ± 0.1% and the EC50 [2, 17] was 590 ± 10 nM. The “ICAM1 mRNA” value ([7]; 5 μM HESP individually, 6 h post-treatment) was “tended to increased”, the “cellular MMP-3 protein” value [8] was “increase” and the “toxicity (cytotoxicity)” value ([9]; BJ fibroblasts) was “no toxicity”. For the same compound, the “viability of BJ cells in vitro” value ([9]; HESP (40 μM) with and without 5 μM tRES) was “minor decrease”, the “NQO-1 mRNA (relative mRNA copy numbers as a % of vehicle control)” value [10] was 93.0 ± 3.5 % of vehicle control and the “cellular level of GSSG” value [11] was “did not change”. The “safety assessments (tolerability)” value [12] was “highly tolerated”.

In the case of `CN(C)C(=N)N=C(N)N` [metformin], the ΔOGIS [13] is listed as “+54 mlmin^−1m^−2”.

For `C[S+]([O-])CCCCN=C=S` (stereo not drawn) [sulforaphane], the “human hair follicle growth” value [14] is listed as “significantly up-regulates”, the “HO-1 gene expression in human hair follicles” value [15] is listed as “significantly up-regulates” and the “NQO-1 gene expression in human hair follicles” value [16] is listed as “significantly up-regulates”.

In the case of `Oc1ccc(/C=C/c2cc(O)cc(O)c2)cc1` [trans-resveratrol], the “NQO-1 - ARE transcription, normalised to positive control” value ([1]; 0.625 μM trans-resveratrol, 0 μM hesperetin) is reported as 1.9 ± 8.6%, the “NQO-1 - ARE transcription, normalised to positive control” value ([1]; 1.25 μM trans-resveratrol, 0 μM hesperetin) is reported as 6.4 ± 2.5% and the “NQO-1 - ARE transcription, normalised to positive control” value ([1]; 2.5 μM trans-resveratrol, 0 μM hesperetin) is reported as 15.7 ± 6.7%. The “NQO-1 - ARE transcription, normalised to positive control (blank = 0%, 10 μM trans-resveratrol = 100%)” value [1] was 58.0 ± 2.5% and 56.9 ± 1.7%, the “NQO-1 - ARE transcription, normalised to positive control” value ([1]; 10 μM trans-resveratrol, 0 μM hesperetin (positive control = 100%)) was 100.0 ± 10.0% and the “cellular level of GSH” value [6] was “did not change”. For the same compound, the “GLO1-ARE transcription, normalised to positive control” value ([2]; 0.625 μM trans-resveratrol, 0 μM hesperetin, HepG2) was 4.0 ± 2.2%, the “GLO1-ARE transcription, normalised to positive control” value ([2]; 1.25 μM trans-resveratrol, 0 μM hesperetin, HepG2) was 19.2 ± 7.6% and the “GLO1-ARE transcription, normalised to positive control” value ([2]; 2.5 μM trans-resveratrol, 0 μM hesperetin, HepG2) was 53.8 ± 7.4%. For the same compound, the “GLO1-ARE transcription, normalised to positive control (blank = 0%, 10 μM trans-resveratrol = 100%)” value ([2]; HepG2) was 67.6 ± 14.5%, the “GLO1-ARE transcription, normalised to positive control” value ([2]; 10 μM trans-resveratrol, 0 μM hesperetin (positive control = 100%), HepG2) was 100.0 ± 2.9% and the “predicted increase of GLO1-ARE transcriptional response” value ([2]; 0.1-1.0 tRES in the presence of 5 μM HESP) was 3-79 fold. The “increased GLO1-ARE transcriptional response over additive effects” value ([2]; 0.1-1.0 tRES in the presence of 5 μM HESP, predicted) was “up to 79%”, the “Emax of tRES, GLO1-ARE response” value ([2]; 0.625-10 μM tRES with 5 μM HESP) was “maintaining the Emax” and the EC50 ([2]; HepG2, 0.625-10 μM tRES with 5 μM HESP, read-out: EC50 of tRES for GLO1-ARE transcriptional response) was 1460 ± 100 nM. For the same compound, the Emax ([2]; HepG2, compound alone) was 100 ± 8.9%, the EC50 [2, 17] was 2520 ± 190 nM and the “ICAM1 mRNA” value ([7]; 5 μM tRES individually, 48 h post-treatment) was “tended to increased”. The “cellular MMP-3 protein” value [8] was “decreases”, the “toxicity (cytotoxicity)” value ([9]; BJ fibroblasts) was “no toxicity” and the cell number ([9]; tRES (5 μM) with 0.625 μM HESP, BJ fibroblasts) was “minor increase”. The “viability of BJ cells in vitro” value ([9]; tRES (40 μM) with 5 μM HESP) was “minor decrease” and the “cellular level of GSSG” value [11] was “did not change”.
